Where “and” joins values, the source holds several entries; their conditions need not be identical. Equal values may be shown once.
Legend:
[1] = Leucocyte (cellular) drug levels 2 and 24 h after injection; type: in vivo, human; details: for Leucocyte MMRDX levels, median: n = 6, per l cell volume
Excerpt: (§1) British Jourmal of Cancer (1998) 77(1), 139-146 ? 1998 Cancer Research Campaign Broad phase 11 and pharmacokinetic study of methoxy-morpholino doxorubicin (FCE 23762-MMRDX) in non-small-cell lung cancer, renal cancer and other solid tumour patients M Bakker', JP Droz2, AR Hanauske3, J Verweij4, AT van Oosterom5, HJM Groen', MA Pacciarini6, L Domenigoni6, F van Weissenbruch', E Pianezzola6 and EGE de Vries' 'University Hospital Groningen, The Netherlands; 2Centre L6on Berard, Lyon, France; 3Med. […] Patients received a maximum of six cycles. […] Limitations of the clinical value of anthracyclines are their toxicity profile, especially irreversible, dose-related cardiotoxicity, and intrinsic or acquired tumour resis- tance. Various mechanisms play a role in tumour cell resistance to anthracyclines, including overexpression of drug efflux pumps such as P-glycoprotein, decreased levels of the target enzyme topoisomerase II, and an increase in cellular detoxifying capacity (Kaye and Merry, 1985; Deffie et al, 1989; De Jong et al, 1990; Ford and Hait, 1990; Meijer et al, 1990; Zaman et al, 1994). The morpholinyl anthracyclines have been developed in the course of research aimed at identifying new anthracyclines with at least partially novel modes of action in addition to activity against resis- tant tumours (Acton et al, 1984). […] Box 30.001, 9700 RB Groningen, The Netherlands (Figure 1).

[2] = system: metastatic or unresectable solid tumour patients; experiment: Haematological toxicity (CTC grading, blood cell counts) in broad phase II study; type: in vivo, human; details: for Cycles (%) with anaemia / Cycles (%) with leucopenia / Cycles (%) with neutropenia / Cycles (%) with thrombocytopenia: n = 126 cycles; for Median platelet nadir: 26 patients who received at least three cycles
Excerpt: as §1

[3] = system: metastatic or unresectable solid tumour patients; experiment: Non-haematological toxicity (CTC grading) in broad phase II study; type: in vivo, human; details: for Percentage of cycles with alopecia / Percentage of cycles with diarrhoea / Percentage of cycles with fatigue/malaise / Percentage of cycles with liver toxicity, ALAT / Percentage of cycles with liver toxicity, ASAT / Percentage of cycles with nausea / Percentage of cycles with stomatitis / Percentage of cycles with vomiting / Percentage of cycles with liver toxicity, bilirubin: 132 evaluable cycles
Excerpt: as §1

[4] = system: left ventricular ejection fraction (LVEF); experiment: Cardiac toxicity: LVEF by MUGA scan or echocardiography; type: in vivo, human
Excerpt: as §1

[5] = system: NSCLC, renal cell cancer, head and neck cancer, cervix carcinoma, ACUP; experiment: Tumour response according to WHO criteria; type: in vivo, human
Excerpt: as §1

[6] = Plasma pharmacokinetics, cycle 1 (HPLC with fluorescence detection); type: in vivo, human
Excerpt: as §1

[7] = Urinary excretion up to 96 h; type: in vivo, human
Excerpt: as §1

solid tumour patients = system: solid tumour patients; set-up: method as in Vasey et al, 1995; details: i.v. bolus every 3 weeks, phase I study; ref Vasey et al, 1995; cited from earlier work
[8] = system: solid tumours in animal models; set-up: method as in Grandi et al, 1990; Ripamonti et al, 1992; details: similar activity by intraperitoneal, i.v. or oral route; ref Grandi et al, 1990; Ripamonti et al, 1992; cited from earlier work
[9] = 132 cycles, 48 patients, 1.5 mg m-2 i.v. bolus every 4 weeks
[10] = CTC Grade I, 1.5 mg m-2 i.v. bolus every 4 weeks
[11] = CTC Grade II, 1.5 mg m-2 i.v. bolus every 4 weeks
[12] = CTC Grade III, 1.5 mg m-2 i.v. bolus every 4 weeks
[13] = CTC Grade IV, 1.5 mg m-2 i.v. bolus every 4 weeks
[14] = out of 131 cycles, despite intensive prophylactic antiemetic treatment
[15] = plasma, three-compartmental model, first cycle, 11 patients, 1.5 mg m-2 i.v.

13-dihydro-3'-deamino-3'-[2(S)-methoxy-4-morpholinyl] doxorubicin [13-dihydro metabolite]
Intracellular levels as % of total MMRDX cellular levels ([1]; leucocytes): ≤ 5%

COc1cccc2c1C(=O)c1c(O)c3c(c(O)c1C2=O)C[C@@](O)(C(=O)CO)C[C@@H]3O[C@H]1C[C@H](N2CCO[C@H](OC)C2)[C@H](O)[C@H](C)O1 [MMRDX, methoxymorpholino-doxorubicin]
Patients hospitalized for neutropenic fever ([2]; 47 patients evaluable for haematological toxicity): Seven | CTC grade III/IV neutropenia, % of cycles [2, 9]: 27% | CTC grade III/IV thrombocytopenia, % of cycles [2, 9]: 12% | Cycles (%) with anaemia [2, 10]: 37% | Cycles (%) with leucopenia [2, 10]: 17% | Cycles (%) with neutropenia [2, 10]: 13% | Cycles (%) with thrombocytopenia [2, 10]: 11% | Cycles (%) with anaemia [2, 11]: 31% | Cycles (%) with leucopenia [2, 11]: 23% | Cycles (%) with neutropenia [2, 11]: 20% | Cycles (%) with thrombocytopenia [2, 11]: 6% | Cycles (%) with anaemia [2, 12]: 5% | Cycles (%) with leucopenia [2, 12]: 19% | Cycles (%) with neutropenia [2, 12]: 18% | Cycles (%) with thrombocytopenia [2, 12]: 6% | Cycles (%) with anaemia [2, 13]: 0% | Cycles (%) with leucopenia [2, 13]: 6% | Cycles (%) with neutropenia [2, 13]: 9% | Cycles (%) with thrombocytopenia [2, 13]: 6% | Median (range) nadir haemoglobin ([2]; Cycle 1, n=47): 110(69-147) g l-1 | Median (range) nadir leucocytes ([2]; Cycle 1, n=47): 3.0 (0.1-9.1) x 109 l-1 | Median (range) nadir neutrophils ([2]; Cycle 1, n=47): 1.4 (<0.1-5.8) x 109 l-1 | Median (range) nadir platelets ([2]; Cycle 1, n=47): 178 (8-449) x 109 l-1 | Median (range) nadir platelets ([2]; Cycles 2-6, n=80): 117 (9-372) x 109 l-1 | Median (range) nadir neutrophils ([2]; Cycles 2-6, n=81): 1.7 (< 0.1-6.8) x 109 l-1 | Median (range) nadir haemoglobin ([2]; Cycles 2-6, n=82): 103 (69-153) g l-1 | Median (range) nadir leucocytes ([2]; Cycles 2-6, n=82): 3.0 (0.1-9.8) x 109 l-1 | Median platelet nadir ([2]; cycle 1): 1.78e+11 L⁻¹ | Median platelet nadir ([2]; cycle 2): 1.45e+11 L⁻¹ | Median platelet nadir ([2]; cycle 3): 1.08e+11 L⁻¹ | Median platelet nadir ([2]; cycle 4): 1.06e+11 L⁻¹ | Median platelet nadir ([2]; cycle 5): 9e+10 L⁻¹ | Median platelet nadir ([2]; cycle 6): 1.17e+11 L⁻¹ | Septic death ([2]; day 14 of cycle 2, grade IV neutropenia): one | Day of platelet nadir ([2]; day of cycle): 22 day and 22 (range 7-36) day | Median day of neutrophil nadir ([2]; day of cycle): 22 day and 22 (range 6-36) day | Total number of hospital admissions for haematological toxicity ([2]; excluding admission for blood cell transfusion): eight | Cycles with dose adjustments for haematological toxicity ([2]; in eight patients): 19% | Cycles delayed for haematological toxicity ([2]; in vivo): 29% | Median duration of grade IV neutropenia ([2]; range 1-14): 7 days | Median time to recovery from platelet nadir to > 100 x 109 l-1 ([2]; range 1-20): 7 days | Median time to recovery from neutrophil nadir to > 2 x 109 l-1 ([2]; range 2-22): 7 days | Median duration of grade IV thrombocytopenia ([2]; range 3-19): 11 days | Late and prolonged nausea > or = grade II, % of cycles ([3]; 132 cycles): 34% | Vomiting > or = grade II, % of cycles ([3]; 132 cycles): 39% | Cycles with transient elevation of ALAT ([3]; % of cycles): 71% | Cycles with transient elevation of ASAT ([3]; % of cycles): 64% | Percentage of cycles with alopecia ([3]; CTC Grade I): 10% | Percentage of cycles with diarrhoea ([3]; CTC Grade I): 7% | Percentage of cycles with fatigue/malaise ([3]; CTC Grade I): 24% | Percentage of cycles with liver toxicity, ALAT ([3]; CTC Grade I): 37% | Percentage of cycles with liver toxicity, ASAT ([3]; CTC Grade I): 46% | Percentage of cycles with nausea ([3]; CTC Grade I): 43% | Percentage of cycles with stomatitis ([3]; CTC Grade I): 11% | Percentage of cycles with vomiting ([3]; CTC Grade I): 24% | Percentage of cycles with alopecia ([3]; CTC Grade II): 1.5% | Percentage of cycles with diarrhoea ([3]; CTC Grade II): 1% | Percentage of cycles with fatigue/malaise ([3]; CTC Grade II): 22% | Percentage of cycles with liver toxicity, ALAT ([3]; CTC Grade II): 27% | Percentage of cycles with liver toxicity, ASAT ([3]; CTC Grade II): 16% | Percentage of cycles with liver toxicity, bilirubin ([3]; CTC Grade II): 12% | Percentage of cycles with nausea ([3]; CTC Grade II): 27% | Percentage of cycles with stomatitis ([3]; CTC Grade II): 1% | Percentage of cycles with vomiting ([3]; CTC Grade II): 30% | Percentage of cycles with diarrhoea ([3]; CTC Grade III): 1% | Percentage of cycles with fatigue/malaise ([3]; CTC Grade III): 7% | Percentage of cycles with liver toxicity, ALAT ([3]; CTC Grade III): 7% | Percentage of cycles with liver toxicity, ASAT ([3]; CTC Grade III): 2% | Percentage of cycles with liver toxicity, bilirubin ([3]; CTC Grade III): 0% | Percentage of cycles with nausea ([3]; CTC Grade III): 7% | Percentage of cycles with stomatitis ([3]; CTC Grade III): 1% | Percentage of cycles with vomiting ([3]; CTC Grade III): 4% | Percentage of cycles with diarrhoea ([3]; CTC Grade IV): 0% | Percentage of cycles with fatigue/malaise ([3]; CTC Grade IV): 5% | Percentage of cycles with liver toxicity, ALAT ([3]; CTC Grade IV): 0% | Percentage of cycles with liver toxicity, ASAT ([3]; CTC Grade IV): 0% | Percentage of cycles with liver toxicity, bilirubin ([3]; CTC Grade IV): 1% | Percentage of cycles with stomatitis ([3]; CTC Grade IV): 0% | Percentage of cycles with vomiting ([3]; CTC Grade IV): 5% | Fatigue grade I-III, % of cycles ([3]; considered as drug-related): 53% | Alopecia grade I or II, % of cycles ([3]; in vivo): 11% | Cumulative liver toxicity ([3]; in vivo): No cumulative liver toxicity was observed | Cycles with CTC toxicity >= grade I of ALAT ([3]; in vivo): 87 cycles | Cycles with CTC toxicity >= grade I of ASAT ([3]; in vivo): 78 cycles | Cycles with CTC toxicity >= grade I of bilirubin ([3]; in vivo): 15 cycles | Cycles with CTC toxicity >= grade III of ALAT ([3]; in vivo): nine | Cycles with CTC toxicity >= grade III of ASAT ([3]; in vivo): two | Cycles with CTC toxicity >= grade III of bilirubin ([3]; in vivo): one | Grade I-II diarrhoea, % of cycles ([3]; in vivo): 8% | Grade I-II stomatitis, % of cycles ([3]; in vivo): 11% | Local phlebitis at the injection site, renal toxicity, neurotoxicity ([3]; in vivo): Neither local phlebitis at the injection site nor renal or neuro- toxicity were observed | Median day of onset of nausea ([3]; in vivo): 3 (range 1-17) day | Median day of onset of vomiting ([3]; in vivo): 3 (range 1-22) day | Patients hospitalized for nausea/vomiting ([3]; in vivo): Five | Nausea and vomiting grade III-IV, % of cycles ([3]; in vivo, iv): 9% | Day of maximum transient elevations of ASAT and ALAT ([3]; lasting approximately one week): 8 days | Patients with alopecia grade I or II ([3]; only one grade II): Nine | Cycles with nausea [3, 14]: 100 cycles | Cycles with vomiting [3, 14]: 82 cycles | Transient transaminases elevation grade III/IV, % of cycles ([3]; printed '> grade III/IV', 132 cycles): 7% | Median hospitalization duration for nausea/vomiting ([3]; range 1-7): 4 days | Median duration of vomiting ([3]; range 1-28): 3 days | Median duration of nausea ([3]; range 1-38): 7 days | Median day of recovery of ASAT to normal values ([3]; range 8-26): 15 days | Median day of recovery of ALAT to normal values ([3]; range 8-36): 15 days | Patients with left ventricular ejection fraction reduced >= 15% ([4]; 26 patients evaluable for cardiac toxicity): two | Decrease in LVEF ([4]; one patient with head and neck cancer, after three cycles, cumulative dose 4.5 mg m-2): 15% | Cardiotoxicity ([4]; overall conclusion of the study): No clear signs of cardiotoxicity were observed | Decrease in LVEF ([4]; second patient (NSCLC), echocardiography, after four cycles, cumulative dose 6 mg m-2): 17% | Efficacy in NSCLC and renal cell cancer ([5]; NSCLC (20 evaluable patients) and renal cell cancer (18 evaluable patients)): ineffective | Patients with partial response ([5]; NSCLC patient with retroperitoneal metastases, forty-three patients evaluable for tumour response): One | Patients with progressive disease ([5]; forty-three patients evaluable): Twenty-five | Patients with stable disease ([5]; forty-three patients evaluable): 17 patients | Duration of partial response ([5]; one NSCLC patient): 17 weeks | Terminal half-life relative to epirubicin t1/2,z ([6]; epirubicin value ref Camaggi et al, 1988): 1.6 fold | Interindividual coefficient of variation ([6]; on the basis of AUC calculated up to infinite time): about 20% | Plasma clearance, mean ± s.d. ([6]; plasma, 11 patients, 1.5 mg m-2 i.v.): 37.2 +/- 7.3 l h-1 m-2 | AUC0-infinity, mean ± s.d. ([6]; plasma, n = 11, 1.5 mg m-2 i.v., linear trapezoidal rule): 20.4 ± 6.2 ng·h/mL | Half-life of the first phase ([6]; plasma, three-compartmental model, 11 patients, 1.5 mg m-2 i.v.): 4 min | t1/2,beta (second phase), mean ± s.d. [6, 15]: 2.4 h | t1/2,gamma (third phase), mean ± s.d. [6, 15]: 49 h | Mean leucocyte concentration relative to corresponding plasma concentration ([1]; 2 h after infusion): 650 fold | Leucocyte MMRDX levels, median ([1]; 2 h after infusion): 414 µg/L | Mean leucocyte concentration relative to corresponding plasma concentration ([1]; 24 h after infusion): 400 fold | Leucocyte MMRDX levels, median ([1]; 24 h after infusion): 174 µg/L | Renal clearance ([7]; in vivo): about 1.8 l h-1 | Urinary excretion of the unchanged drug, % of the administered dose ([7]; urine collection up to 96 h, nine patients): 2% | Maximum-tolerated dose (solid tumour patients): 1.5 mg m-2 | Effectiveness in solid tumours in animal models [8]: as effective as doxorubicin

From PMC2151269, “Broad phase II and pharmacokinetic study of methoxy-morpholino doxorubicin (FCE 23762-MMRDX) in non-small-cell lung cancer, renal cancer and other solid tumour patients” (British Journal of Cancer, 1998)
